Our source for the inhibition values is patent US9315491B2 (DEVELOPMENT CENTER FOR BIOTECHNOLOGY, priority 2009, dated 2016).

Chain of PI3K (p110α/p85α) (P42336 whole entry, species assumed): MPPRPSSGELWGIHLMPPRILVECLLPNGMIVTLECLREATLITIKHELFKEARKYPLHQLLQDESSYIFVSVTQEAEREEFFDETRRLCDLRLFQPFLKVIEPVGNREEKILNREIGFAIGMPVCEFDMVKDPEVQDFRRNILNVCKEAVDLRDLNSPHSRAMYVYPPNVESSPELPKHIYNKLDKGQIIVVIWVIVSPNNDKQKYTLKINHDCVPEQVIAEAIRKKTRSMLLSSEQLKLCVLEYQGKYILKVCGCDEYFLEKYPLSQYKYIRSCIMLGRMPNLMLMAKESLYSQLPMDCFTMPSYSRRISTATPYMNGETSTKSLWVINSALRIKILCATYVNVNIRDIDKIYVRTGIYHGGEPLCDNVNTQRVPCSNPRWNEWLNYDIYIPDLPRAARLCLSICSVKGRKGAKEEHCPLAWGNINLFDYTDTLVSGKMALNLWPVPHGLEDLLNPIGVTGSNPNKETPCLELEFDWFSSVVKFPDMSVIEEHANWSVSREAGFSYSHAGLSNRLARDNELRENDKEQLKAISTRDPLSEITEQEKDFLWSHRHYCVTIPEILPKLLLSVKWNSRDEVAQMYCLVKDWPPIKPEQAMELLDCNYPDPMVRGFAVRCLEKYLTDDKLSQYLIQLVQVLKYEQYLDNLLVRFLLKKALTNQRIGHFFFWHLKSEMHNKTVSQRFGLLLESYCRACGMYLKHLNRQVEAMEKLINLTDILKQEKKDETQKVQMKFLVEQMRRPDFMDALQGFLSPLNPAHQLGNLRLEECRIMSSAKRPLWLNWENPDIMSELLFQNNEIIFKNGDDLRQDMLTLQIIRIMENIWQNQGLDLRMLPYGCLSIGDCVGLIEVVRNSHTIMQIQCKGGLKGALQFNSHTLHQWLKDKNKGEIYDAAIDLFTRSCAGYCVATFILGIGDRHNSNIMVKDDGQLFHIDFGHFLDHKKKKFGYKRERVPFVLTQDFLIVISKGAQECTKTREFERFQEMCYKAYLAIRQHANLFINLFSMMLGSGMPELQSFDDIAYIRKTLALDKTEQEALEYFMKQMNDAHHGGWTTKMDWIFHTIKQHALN
Chain of PI3K (p110α/p85α) (P27986 whole entry partner, species assumed): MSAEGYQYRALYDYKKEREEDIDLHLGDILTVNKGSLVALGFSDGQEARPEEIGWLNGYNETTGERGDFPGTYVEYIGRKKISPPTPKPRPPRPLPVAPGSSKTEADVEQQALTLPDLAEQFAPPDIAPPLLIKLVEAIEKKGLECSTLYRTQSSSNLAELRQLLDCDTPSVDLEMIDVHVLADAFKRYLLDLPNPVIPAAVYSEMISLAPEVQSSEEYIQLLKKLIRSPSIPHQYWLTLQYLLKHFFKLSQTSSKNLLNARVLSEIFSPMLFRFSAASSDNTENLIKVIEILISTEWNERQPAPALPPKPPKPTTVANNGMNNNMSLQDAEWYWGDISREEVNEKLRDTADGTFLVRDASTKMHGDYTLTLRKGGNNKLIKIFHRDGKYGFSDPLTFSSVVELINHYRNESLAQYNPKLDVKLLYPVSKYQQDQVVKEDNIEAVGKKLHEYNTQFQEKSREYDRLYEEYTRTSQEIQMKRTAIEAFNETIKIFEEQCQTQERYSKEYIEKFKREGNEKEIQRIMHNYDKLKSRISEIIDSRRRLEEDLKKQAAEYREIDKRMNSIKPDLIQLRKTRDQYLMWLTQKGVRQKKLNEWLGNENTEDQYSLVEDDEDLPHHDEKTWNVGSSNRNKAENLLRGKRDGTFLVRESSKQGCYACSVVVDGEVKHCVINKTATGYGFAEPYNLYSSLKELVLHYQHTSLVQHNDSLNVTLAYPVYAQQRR
Chain of recombinant mTOR (P42345 1360-2549): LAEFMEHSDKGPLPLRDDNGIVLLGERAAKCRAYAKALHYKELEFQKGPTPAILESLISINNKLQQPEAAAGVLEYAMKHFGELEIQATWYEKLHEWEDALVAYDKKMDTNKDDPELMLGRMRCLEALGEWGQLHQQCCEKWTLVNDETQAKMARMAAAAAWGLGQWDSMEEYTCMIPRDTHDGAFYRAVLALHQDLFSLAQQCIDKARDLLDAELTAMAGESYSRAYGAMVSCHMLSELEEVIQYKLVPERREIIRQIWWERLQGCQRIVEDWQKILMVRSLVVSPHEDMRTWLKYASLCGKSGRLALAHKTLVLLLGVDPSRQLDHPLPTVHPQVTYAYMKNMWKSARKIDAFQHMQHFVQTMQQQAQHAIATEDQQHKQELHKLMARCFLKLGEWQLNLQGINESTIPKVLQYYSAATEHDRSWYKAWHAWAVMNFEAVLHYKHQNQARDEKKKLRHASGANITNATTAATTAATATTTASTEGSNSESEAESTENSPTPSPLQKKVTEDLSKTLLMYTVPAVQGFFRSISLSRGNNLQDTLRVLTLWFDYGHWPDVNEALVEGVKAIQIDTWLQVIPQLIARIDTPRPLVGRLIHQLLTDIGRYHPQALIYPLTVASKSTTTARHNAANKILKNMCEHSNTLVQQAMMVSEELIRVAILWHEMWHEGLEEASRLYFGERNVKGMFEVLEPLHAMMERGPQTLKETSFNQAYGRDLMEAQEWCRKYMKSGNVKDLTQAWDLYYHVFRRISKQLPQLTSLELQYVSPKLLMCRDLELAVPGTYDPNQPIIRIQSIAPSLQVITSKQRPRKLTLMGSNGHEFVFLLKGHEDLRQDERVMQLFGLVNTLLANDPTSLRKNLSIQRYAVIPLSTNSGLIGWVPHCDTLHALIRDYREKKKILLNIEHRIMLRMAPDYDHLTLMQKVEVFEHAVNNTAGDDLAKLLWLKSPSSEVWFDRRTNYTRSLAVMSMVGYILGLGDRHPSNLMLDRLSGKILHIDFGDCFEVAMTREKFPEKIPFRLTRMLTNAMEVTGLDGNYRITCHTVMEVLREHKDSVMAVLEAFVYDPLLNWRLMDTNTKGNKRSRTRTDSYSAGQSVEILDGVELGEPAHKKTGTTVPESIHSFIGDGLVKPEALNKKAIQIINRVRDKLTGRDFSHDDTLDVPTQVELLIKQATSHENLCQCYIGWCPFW

The first test has as its target recombinant mTOR (Homo sapiens (Human), UniProt P42345). The test can be described thus: mTOR kinase assay (33P incorporation into 4EBP1). The class given is biochemical. As to conditions: compound at 10 μM, 10 μM ATP. The procedure, abridged:
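Recombinant human mTOR (50 ng) phosphorylated His-tagged 4EBP1 (300 ng) with 10 μM ATP plus [γ-33P]-ATP in HEPES pH 7.5, MnCl2, EGTA and DTT for 30 min at 30° C. Labelled 4EBP1 was filter-captured and counted. IC50 was derived from eight-point duplicate dilution series.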
As usually defined, the inhibition is the change of the read-out against control, counted positive when it falls. For `CCOC(=O)c1nc(-c2ccc(NC(=O)Nc3cccc(F)c3)cc2)nc(N2CCOCC2)c1OCC` [MTR-0147, 5-Ethoxy-2-{4-[3-(3-fluoro-phenyl)-ureido]-phenyl}-6-morpholin-4-yl-pyrimidine-4-carboxylic acid ethyl ester], the inhibition at 10 µM was 95%.

Consider `CSc1c(OCCN(C)C)nc(-c2cccc(O)c2)nc1N1CCOCC1` [MTR-0043, 3-[4-(2-Dimethylamino-ethoxy)-5-methylsulfanyl-6-morpholin-4-yl-pyrimidin-2-yl]-phenol], for which the inhibition at 10 µM worked out at 96%.

`CCOc1c(CN2CCN(S(C)(=O)=O)CC2)nc(-c2ccc(NC(=O)Nc3ccccc3)cc2)nc1N1CCOCC1` [MTR-0169, 1-{4-[5-Ethoxy-4-(4-methanesulfonyl-piperazin-1-ylmethyl)-6-morpholin-4-yl-pyrimidin-2-yl]-phenyl}-3-phenyl-urea]: the inhibition at 10 µM stood at 96%.

For `COc1cnc(-c2ccc(NC(=O)Nc3cccc(F)c3)cc2)nc1N1CCOCC1` [MTR-0164, 1-(3-Fluoro-phenyl)-3-[4-(5-methoxy-4-morpholin-4-yl-pyrimidin-2-yl)-phenyl]-urea], the inhibition at 10 µM was 91%.

In the next test the target is PI3K (p110α/p85α) (Homo sapiens (Human), UniProt P42336). The test can be described thus: PI3K HTRF enzyme assay, p110α/p85α. The class given is biochemical. As to conditions: read-out: % inhibition @ 500 nM p110α; compound at 500 nM, 10 μM ATP. The procedure, abridged:
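Recombinant PI3K heterodimers with PIP2 substrate; reactions ran 30 min at room temperature with 10 μM ATP for p110α/p85α and 100 μM ATP for p110β/p85α. After stop, HTRF detection followed 17 h incubation in the dark at room temperature; HTRF ratio used as read-out.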
A general note: TR-FRET usually uses a lanthanide donor and a delayed reading to cut background.
`CCOC(=O)c1nc(-c2ccc(NC(=O)Nc3cccc(F)c3)cc2)nc(N2CCOCC2)c1OCC` [MTR-0147, 5-Ethoxy-2-{4-[3-(3-fluoro-phenyl)-ureido]-phenyl}-6-morpholin-4-yl-pyrimidine-4-carboxylic acid ethyl ester]: the inhibition at 0.5 µM came to 52.4%.

For `CSc1c(OCCN(C)C)nc(-c2cccc(O)c2)nc1N1CCOCC1` [MTR-0043, 3-[4-(2-Dimethylamino-ethoxy)-5-methylsulfanyl-6-morpholin-4-yl-pyrimidin-2-yl]-phenol], the inhibition at 0.5 µM stood at 85.4%.

For the compound `CCOc1c(CN2CCN(S(C)(=O)=O)CC2)nc(-c2ccc(NC(=O)Nc3ccccc3)cc2)nc1N1CCOCC1` [MTR-0169, 1-{4-[5-Ethoxy-4-(4-methanesulfonyl-piperazin-1-ylmethyl)-6-morpholin-4-yl-pyrimidin-2-yl]-phenyl}-3-phenyl-urea], the inhibition at 0.5 µM is 52.7%.

On to `CCOC(=O)c1nc(-c2ccc(NC(=O)Nc3ccccc3)cc2)nc(N2CCOCC2)c1OCC` [MTR-0069, 5-Ethoxy-6-morpholin-4-yl-2-[4-(3-phenyl-ureido)-phenyl]-pyrimidine-4-carboxylic acid ethyl ester], for which the inhibition at 0.5 µM was 53.8%.

As to `CCOC(=O)c1nc(-c2ccc(NC(=O)Nc3ccc4oc(=O)[nH]c4c3)cc2)nc(N2CCOCC2)c1OCC` [MTR-0299, 5-Ethoxy-6-morpholin-4-yl-2-{4-[3-(2-oxo-2,3-dihydro-benzooxazol-5-yl)-ureido]-phenyl}-pyrimidine-4-carboxylic acid ethyl ester], the inhibition at 0.5 µM came out at 44.3%.

In the case of `CSc1c(N2CCOCC2)nc(-c2ccc(NC(=O)Nc3ccccc3)cc2)nc1N1CCN(S(C)(=O)=O)CC1` [MTR-0173, 1-{4-[4-(4-Methanesulfonyl-piperazin-1-yl)-5-methylsulfanyl-6-morpholin-4-yl-pyrimidin-2-yl]-phenyl}-3-phenyl-urea], the inhibition at 0.5 µM is 82.1%.

`COc1cnc(-c2ccc(NC(=O)Nc3ccc(C(N)=O)cc3)cc2)nc1N1CCOCC1` [MTR-0282, 4-{3-[4-(5-Methoxy-4-morpholin-4-yl-pyrimidin-2-yl)-phenyl]-ureido}-benzamide]: the inhibition at 0.5 µM came out at 76.8%.

As to `COc1cnc(-c2ccc(NC(=O)Nc3cccc(F)c3)cc2)nc1N1CCOCC1` [MTR-0164, 1-(3-Fluoro-phenyl)-3-[4-(5-methoxy-4-morpholin-4-yl-pyrimidin-2-yl)-phenyl]-urea], the inhibition at 0.5 µM was 84.7%.

`CSc1cnc(-c2ccc(NC(=O)Nc3ccc(C(N)=O)cc3)cc2)nc1N1CCOCC1` [MTR-0267, 4-{3-[4-(5-Methylsulfanyl-4-morpholin-4-yl-pyrimidin-2-yl)-phenyl]-ureido}-benzamide]: the inhibition at 0.5 µM was found to be 83.7%.

Consider `CCOC(=O)c1nc(-c2ccc(NC(=O)Nc3ccc(N4CCOCC4=O)cc3)cc2F)nc(N2CCOCC2)c1OCC` [MTR-0322, 5-Ethoxy-2-(2-fluoro-4-{3-[4-(3-oxo-morpholin-4-yl)-phenyl]-ureido}-phenyl)-6-morpholin-4-yl-pyrimidine-4-carboxylic acid ethyl ester], for which the inhibition at 0.5 µM is 44.2%.

Consider `CCOC(=O)c1nc(-c2ccc(NC(=O)Nc3ccc(C(=O)N4CCN(C)CC4)cc3)cc2)nc(N2CCOCC2)c1OCC` [MTR-0274, 5-Ethoxy-2-(4-{3-[4-(4-methyl-piperazine-1-carbonyl)-phenyl]-ureido}-phenyl)-6-morpholin-4-yl-pyrimidine-4-carboxylic acid ethyl ester], for which the inhibition at 0.5 µM was found to be 59%.

In the case of `COc1cnc(-c2ccc(NC(=O)Nc3ccc(N4CCOCC4=O)cc3)c(F)c2)nc1N1CCOCC1` [MTR-0405, 1-[2-Fluoro-4-(5-methoxy-4-morpholin-4-yl-pyrimidin-2-yl)-phenyl]-3-[4-(3-oxo-morpholin-4-yl)-phenyl]-urea], the inhibition at 0.5 µM worked out at 52.5%.

With `CSc1cnc(-c2ccc(NC(=O)Nc3ccc(NC(C)=O)cc3)cc2)nc1N1CCOCC1` [MTR-0380, N-(4-{3-[4-(5-Methylsulfanyl-4-morpholin-4-yl-pyrimidin-2-yl)-phenyl]-ureido}-phenyl)-acetamide], the inhibition at 0.5 µM is 101%.

As for `O=C(Nc1ccc(-c2ncc(OCCN3CCOCC3)c(N3CCOCC3)n2)cc1)Nc1ccc(N2CCOCC2=O)cc1` [MTR-0455, 1-{4-[4-Morpholin-4-yl-5-(2-morpholin-4-yl-ethoxy)-pyrimidin-2-yl]-phenyl}-3-[4-(3-oxo-morpholin-4-yl)-phenyl]-urea], the inhibition at 0.5 µM worked out at 48.9%.

As to `COc1cnc(-c2ccc(NC(=O)Nc3ccc(F)c(F)c3)cc2)nc1N1CCOCC1` [MTR-0165, 1-(3,4-Difluoro-phenyl)-3-[4-(5-methoxy-4-morpholin-4-yl-pyrimidin-2-yl)-phenyl]-urea], the inhibition at 0.5 µM was 101%.

With `CSc1c(Cl)nc(-c2ccc(NC(=O)Nc3ccc(N4CCN(C)CC4)cc3)cc2)nc1N1CCOCC1` [MTR-0215, 1-[4-(4-Chloro-5-methylsulfanyl-6-morpholin-4-yl-pyrimidin-2-yl)-phenyl]-3-[4-(4-methyl-piperazin-1-yl)-phenyl]-urea], the inhibition at 0.5 µM came out at 53.6%.

For `CCOC(=O)c1nc(-c2ccc(NC(=O)Nc3ccc(C(=O)NCCN(C)C)cc3)cc2)nc(N2CCOCC2)c1OCC` [MTR-0277, 2-(4-{3-[4-(2-Dimethylamino-ethylcarbamoyl)-phenyl]-ureido}-phenyl)-5-ethoxy-6-morpholin-4-yl-pyrimidine-4-carboxylic acid ethyl ester], the inhibition at 0.5 µM came out at 61.9%.

For `CSc1cnc(-c2ccc(NC(=O)Nc3ccc(NS(C)(=O)=O)cc3)cc2)nc1N1CCOCC1` [MTR-0376, N-(4-{3-[4-(5-Methylsulfanyl-4-morpholin-4-yl-pyrimidin-2-yl)-phenyl]-ureido}-phenyl)-methanesulfonamide], the inhibition at 0.5 µM came out at 79.4%.

As to `CSc1cnc(-c2ccc(NC(=O)Nc3ccc(C(=O)O)cc3)cc2)nc1N1CCOCC1` [MTR-0316, 4-{3-[4-(5-Methylsulfanyl-4-morpholin-4-yl-pyrimidin-2-yl)-phenyl]-ureido}-benzoic acid], the inhibition at 0.5 µM amounted to 55.9%.

As for `COc1cnc(-c2ccc(NC(=O)Nc3ccc(N4CCOCC4)cc3)cc2)nc1N1CCOCC1` [MTR-0261, 1-[4-(5-Methoxy-4-morpholin-4-yl-pyrimidin-2-yl)-phenyl]-3-(4-morpholin-4-yl-phenyl)-urea], the inhibition at 0.5 µM turned out to be 58.4%.

Consider `CCOC(=O)c1nc(-c2ccc(NC(=O)Nc3cccnc3)cc2)nc(N2CCOCC2)c1OCC` [MTR-0205, 5-Ethoxy-6-morpholin-4-yl-2-[4-(3-pyridin-3-yl-ureido)-phenyl]-pyrimidine-4-carboxylic acid ethyl ester], for which the inhibition at 0.5 µM was determined as 42.6%.

In the case of `COc1cnc(-c2ccc(NC(=O)Nc3ccc(N4CCOCC4=O)cc3)cc2F)nc1N1CCOCC1` [MTR-0406, 1-[3-Fluoro-4-(5-methoxy-4-morpholin-4-yl-pyrimidin-2-yl)-phenyl]-3-[4-(3-oxo-morpholin-4-yl)-phenyl]-urea], the inhibition at 0.5 µM worked out at 78.4%.

Consider `CSc1c(Cl)nc(-c2ccc(NC(=O)Nc3ccc(N4CCN(C)CC4)nc3)cc2)nc1N1CCOCC1` [MTR-0236, 1-[4-(4-Chloro-5-methylsulfanyl-6-morpholin-4-yl-pyrimidin-2-yl)-phenyl]-3-[6-(4-methyl-piperazin-1-yl)-pyridin-3-yl]-urea], for which the inhibition at 0.5 µM is 61.2%.

Take `CSc1cnc(-c2ccc(NC(=O)Nc3ccc(N4CCOCC4=O)cc3)cc2)nc1N1CCOCC1` [MTR-0227, 1-[4-(5-Methylsulfanyl-4-morpholin-4-yl-pyrimidin-2-yl)-phenyl]-3-[4-(3-oxo-morpholin-4-yl)-phenyl]-urea]: the inhibition at 0.5 µM came to 87%.

For `CSc1cnc(-c2ccc(NC(=O)Nc3ccc(N4CCOCC4=O)cc3)cc2F)nc1N1CCOCC1` [MTR-0378, 1-[3-Fluoro-4-(5-methylsulfanyl-4-morpholin-4-yl-pyrimidin-2-yl)-phenyl]-3-[4-(3-oxo-morpholin-4-yl)-phenyl]-urea], the inhibition at 0.5 µM was determined as 84.5%.

Turning to `CCOc1cnc(-c2ccc(NC(=O)Nc3ccc(S(C)(=O)=O)cc3)cc2)nc1N1CCOCC1` [MTR-0424, 1-[4-(5-Ethoxy-4-morpholin-4-yl-pyrimidin-2-yl)-phenyl]-3-(4-methanesulfonyl-phenyl)-urea], the inhibition at 0.5 µM was 71.5%.

Take `CCOC(=O)c1nc(-c2ccc(NC(=O)Nc3ccc(NC(C)=O)cc3)cc2)nc(N2CCOCC2)c1OCC` [MTR-0370, 2-{4-[3-(4-Acetylamino-phenyl)-ureido]-phenyl}-5-ethoxy-6-morpholin-4-yl-pyrimidine-4-carboxylic acid ethyl ester]: the inhibition at 0.5 µM stood at 61.8%.

As to `CSc1c(Cl)nc(-c2ccc(NC(N)=O)cc2)nc1N1CCOCC1` [MTR-0083, [4-(4-Chloro-5-methylsulfanyl-6-morpholin-4-yl-pyrimidin-2-yl)-phenyl]-urea], the inhibition at 0.5 µM worked out at 44.8%.

`CSc1cnc(-c2ccc(NC(=O)Nc3ccc(S(C)(=O)=O)cc3)cc2)nc1N1CCOCC1` [MTR-0404, 1-(4-Methanesulfonyl-phenyl)-3-[4-(5-methylsulfanyl-4-morpholin-4-yl-pyrimidin-2-yl)-phenyl]-urea]: the inhibition at 0.5 µM amounted to 66.9%.

Turning to `COc1cnc(-c2ccc(NC(=O)Nc3ccc(C(N)=O)cc3)c(F)c2)nc1N1CCOCC1` [MTR-0385, 4-{3-[2-Fluoro-4-(5-methoxy-4-morpholin-4-yl-pyrimidin-2-yl)-phenyl]-ureido}-benzamide], the inhibition at 0.5 µM was found to be 64%.
